Assays:
Plasmodium berghei = tested on: Plasmodium berghei
Protocol: FIG. 2: In vivo measurement of parasite killing ability of Acriflavin.
This is further described hereinafter as Example 3.
The mice were divided into three groups (each group had 4 mice). For four consecutive days, group I was injected subcutaneously with 5 mg Acriflavin/kg body weight; group II received 5 mg Chloroquine/kg body weight and the group III received no drug and served as control in this experiment. Every alternate day the parasitemia from the tail blood was calculated. […] The mouse groups were kept under observation for 3 weeks after the drug treatment.

[1] = tested on: malaria parasite in vitro; assay: Anti-malarial property of Acriflavin vs Proflavin in vitro (parasitemia at end of first life cycle); assay type: cell-based, Plasmodium falciparum; conditions: 100 nM and 250 nM drug concentrations
Protocol: FIG. 1: Effect of Acriflavin on in vitro growth of 3D7 and W2 strains. Synchronized chloroquine susceptible 3D7 (A) and Chloroquine resistant W2 (B) parasites at ring stage (˜16-20 hrs) were treated with 20 nM to 100 nM of Acriflavin and parasitemia were counted at different time points (post-treatment) as indicated. (C) In each case, parasitemia were determined at the end of the first life cycle and plotted against different concentrations of Acriflavin/Proflavin. Each point/column represents the parasitemia of the mean of triplicates with standard deviations. […] Parasite growth inhibition was assessed by microscopy of giemsa stained smear at different time points as indicated.
Acriflavin is a mixture of 3,6-diamino-10-methylacridinium chloride (Trypflavin) and 3,6-diaminoacridine (Proflavin). […] After the Acriflavin treatment, the parasitemia was calculated in each case. Further, the anti-malarial property of Acriflavin vs Proflavin was also evaluated.
To determine the antimalarial activity of Acriflavin in vitro, synchronised ring stage, Chloroquine sensitive (3D7) and Chloroquine resistant (W2) P. falciparum (˜2.5% parasitemia) parasites were incubated with a range of Acriflavin concentrations (0-100 nM). After 40 hours of the Acriflavin treatment, the parasitemia was calculated in each case. […]

## CCN(CC)CCCC(C)Nc1ccnc2cc(Cl)ccc12 (stereo not shown) [Chloroquine]
Plasmodium berghei; 5 mg/kg body weight subcutaneously, four consecutive days, tail blood, untreated control 16%
  parasitemia at the end of day 6: 0.33%
Plasmodium berghei; 5 mg/kg s.c. for four days, 3 weeks observation after treatment, untreated control 25%
  survivability rate: 75%

## Nc1ccc2cc3ccc(N)cc3nc2c1 [Proflavin, 3,6-diaminoacridine]
[1]
  anti-malarial property against malaria parasite in vitro: ineffective

## mixture of 3,6-diamino-10-methylacridinium chloride (Trypflavin) and 3,6-diaminoacridine (Proflavin) [Acriflavin]
Plasmodium berghei; mouse, in vivo
  drug-related effects on body weight or general condition of animals: No drug-related effects
